Measured values from patent US20030113742A1, “Methods and compositions for the modulation of biofilm formation” (priority 2001, published 2003).

How the values were obtained:
[1] = system: planktonic P. aeruginosa PAO1; assay: Minimum inhibitory concentration for planktonic cells; format: cell-based, Pseudomonas aeruginosa PAO1
[2] = system: P. aeruginosa biofilms; assay: Plate counting of biofilm cell numbers after tobramycin; format: cell-based, Pseudomonas aeruginosa PAO1; conditions: 5 μg/ml
Procedure: (§1) P. aeruginosa PAO1 was grown at 37° C. with aeration in chemostat vessels (100 ml of medium, dilution rate, 0.2 h^−1). The growth medium consisted of 0.5% NH4Cl, 0.25% NaCl, 0.015% KH2PO4, 1.5% MOPS (pH, 7.0), and 0.015% casamino acids. For biofilms, the chemostat vessel contained 100 g of sterilized granite pebbles (approximately 70 pebbles). Vessels were inoculated with approximately 10^6 P. aeruginosa cells. For biofilm cultures, cells were allowed to attach to the rocks for 24 h prior to initiating the flow of medium, after which flow was initiated at a high rate (100 ml/h). After 2 h at this flow rate, more than 99% of all unattached bacteria were washed away. Flow was then decreased to give a final dilution rate identical to that in the planktonic chemostat. After 5 days cell numbers in the biofilm and planktonic chemostats were similar ([…]) as determined with standard plate counting techniques. To remove biofilm bacteria for plate counting, rocks were vortexed for 2 minutes in 5 ml phosphate buffered saline. A small planktonic population was present in the biofilm reactors throughout the experiment, but never represented more than 0.1% of the total chemostat population.
The existence in a biofilm might induce moderate levels of resistance to all antimicrobial treatments. […]

[3] = system: P. aeruginosa biofilms; assay: Microarray of genes regulated by tobramycin in P. aeruginosa biofilms; format: cell-based, Pseudomonas aeruginosa PAO1; conditions: for Fold activation ± SE: tobramycin 5 μg/ml 24 h, treated vs untreated biofilms
Procedure: as §1
RNA was isolated from planktonic and biofilm bacteria using the Trizol reagent (Life Technologies, Grand Island, N.Y.). Planktonic cells were pelleted by centrifugation (10,000 rpm for 10 min) at 4° C. For biofilm RNA isolation, rocks containing biofilm bacteria were rinsed with sterile medium and suspended in Trizol reagent. After vortexing for 1 min the rocks were removed and the remaining cell material was sonicated for 10 s. Insoluble material was removed by centrifugation and RNA was isolated as described above. Contaminating DNA was eliminated by DNase treatment, and RNA was isolated by phenol-chloroform extraction and precipitation with LiCl. cDNA probes were produced from RNA using random primers (NSNSNSNSNS) and Cy5-dCTP or Cy3-dCTP (Amersham, Buckinghamshire, UK) according to previously described procedures (J. K. Ichikawa, et al., Proc. Natl. Acad. Sci. U.S.A. 97, 9659 (2000)). To avoid complications associated with Cy5-dCTP and Cy3-dCTP incorporation rates into resulting cDNA, each RNA comparison was performed with both dye combinations on separate microarrays.
The microarrays were glass microscope slides containing representative gene-specific DNA fragments from 5,500 of the estimated 5,570 open reading frames (ORFs) of P. aeruginosa. The microarrays were printed with a Generation II Array printer (Molecular Dynamics), and the hybridized microarrays were images with a Generation II scanning confocal fluorescent microscope (Molecular Dynamics).
The existence in a biofilm might induce moderate levels of resistance to all antimicrobial treatments. This could afford cells in a biofilm the opportunity to respond to an antibiotic by inducing genes more specific to that antibiotic. Thus, biofilms exposed to tobramycin were compared with untreated biofilms. Tobramycin (5 μg/ml) was added to influent medium after 4 days of biofilm growth. After 24 h, biofilms were removed and processed for RNA.
The results (shown in Table 2, below) are from two independent experiments (1 standard error of the mean, SE). Positive values represent activation and negative values represent repression. Gene identifications and P. aeruginosa ORF numbers were obtained from the Pseudomonas Genome Project website. Genes that were repressed in biofilms and activated by tobramycin are underlined. Genes that were activated in biofilms and repressed by tobramycin are shown in italics and bold-face type. Eight of the 20 genes identified as being differentially expressed in tobramycin-treated biofilms (Table 2) were also identified as being differentially expressed in biofilms as compared to planktonic bacterial cells. […]

[4] = system: P. aeruginosa wild-type and rpoS mutant biofilms; assay: Killing of wild-type and rpoS mutant biofilms by tobramycin; format: cell-based, Pseudomonas aeruginosa; conditions: increasing amounts of tobramycin
Procedure: To examine the involvement of rpoS in biofilm development, the wild-type strain and an isogenic rpoS mutant strain were grown in flow cell reactors and both were tagged with a gfp plasmid which expresses green fluorescent protein (GFP) (Whitely, et al. (2000) J. Bacteriology 182:4356-4360). The P. aeruginosa biofilms that developed in the flow cells were examined by scanning confocal laser microscopy. Within four hours, differences between the rpoS mutant and the wild-type biofilms were evident. The mutant had attached to and covered much more of the glass surface. In a quantitative microtitre dish assay, biofilm formation of the parent strain was 38% of the rpoS mutant. After 24 hours, the mutant biofilm had matured and large structured groups of bacteria were evident.
To assess whether rpoS influences the susceptibility of P. aeruginosa biofilms to antibiotics, biofilms of the P. aeruginosa wild-type and rpoS mutant were treated with increasing amounts of the aminoglycoside antibiotic tobramycin. […] These studies confirm that the microarray experiment, as described herein, identified a gene important for biofilm development and antibiotic susceptibility.

[5] = tobramycin-treated vs untreated biofilms, 7× MIC for planktonic cells

Question: `NC[C@H]1O[C@H](O[C@H]2[C@H](O)[C@@H](O[C@H]3O[C@H](CO)[C@@H](O)[C@H](N)[C@H]3O)[C@H](N)C[C@@H]2N)[C@H](N)C[C@@H]1O` [tobramycin] was tested. Which “5 μg/ml concentration as multiple of the minimum inhibitory concentration” value [1] did it give?
Answer: Its value is “approximately 7 ×”.

Question: And the “effect on cell numbers in biofilms” value [2]?
Answer: Its value is “did not significantly affect cell numbers in biofilms”.

Question: What about the “Fold activation ± SE” value ([3]; gene: Conserved hypothetical protein (PA2498)) of the same molecule?
Answer: Its value is 2.9 ± 0.6 Fold.

Question: What about the “Fold activation ± SE” value ([3]; gene: Conserved hypothetical protein (PA3463)) of the same molecule?
Answer: Its value is 8.3 ± 3.2 Fold.

Question: What about the “Fold activation ± SE” value ([3]; gene: Conserved hypothetical protein (PA3785)) of the same molecule?
Answer: Its value is 5.0 ± 1.3 Fold.

Question: What about the “Fold activation ± SE” value ([3]; gene: Conserved hypothetical protein (PA3819)) of the same molecule?
Answer: Its value is 2.1 ± 0.3 Fold.

Question: What about the “Fold activation ± SE” value ([3]; gene: DnaK (PA4761)) of the same molecule?
Answer: The value was 2.7 ± 0.4 Fold.

Question: And the “Fold activation ± SE” value ([3]; gene: GroES (PA4386))?
Answer: The value was 5.8 ± 1.1 Fold.

Question: What about the “Fold activation ± SE” value ([3]; gene: Hypothetical protein (PA1110)) of the same molecule?
Answer: The value was 8.7 ± 1.7 Fold.

Question: What about the “Fold activation ± SE” value ([3]; gene: Hypothetical protein (PA1870), negative = repression) of the same molecule?
Answer: Its value is −6.4 ± 1.5 Fold.

Question: And the “Fold activation ± SE” value ([3]; gene: Hypothetical protein (PA1893), negative = repression)?
Answer: The value was −2.4 ± 0.3 Fold.

Question: What about the “Fold activation ± SE” value ([3]; gene: Hypothetical protein (PA2703)) of the same molecule?
Answer: The value was 19.3 ± 3.7 Fold.

Question: What about the “Fold activation ± SE” value ([3]; gene: Hypothetical protein (PA3884), negative = repression) of the same molecule?
Answer: The value was −14.7 ± 5.7 Fold.

Question: What about the “Fold activation ± SE” value ([3]; gene: Hypothetical protein (PA4326)) of the same molecule?
Answer: Its value is 23.2 ± 7.5 Fold.

Question: And the “Fold activation ± SE” value ([3]; gene: Hypothetical protein of bacteriophage PF1 (PA0721), negative = repression)?
Answer: Its value is −3.9 ± 1.0 Fold.

Question: What about the “Fold activation ± SE” value ([3]; gene: Hypothetical protein of bacteriophage PF1 (PA0725), negative = repression) of the same molecule?
Answer: Its value is −3.1 ± 0.5 Fold.

Question: What about the “Fold activation ± SE” value ([3]; gene: Probable DNA binding protein (PA5348)) of the same molecule?
Answer: Its value is 18.1 ± 4.9 Fold.

Question: And the “Fold activation ± SE” value ([3]; gene: Probable drug efflux protein (PA1541))?
Answer: The value was 4.7 ± 1.4 Fold.

Question: What about the “Fold activation ± SE” value ([3]; gene: Probable metal transporting P-type ATPase (PA3920)) of the same molecule?
Answer: Its value is 3.6 ± 1.1 Fold.

Question: What about the “Fold activation ± SE” value ([3]; gene: Probable transcriptional regulator (PA3574)) of the same molecule?
Answer: Its value is 3.3 ± 0.6 Fold.

Question: And the “Fold activation ± SE” value ([3]; gene: Ribosome modulation factor (PA3049))?
Answer: The value was 24.7 ± 11.4 Fold.

Question: What about the “Fold activation ± SE” value ([3]; gene: Urease beta subunit (PA4867), negative = repression) of the same molecule?
Answer: The value was −3.7 ± 1.1 Fold.

Question: And the “number of genes activated by tobramycin” value [3, 5]?
Answer: Its value is 14.

Question: What about the “number of genes differentially expressed in tobramycin-treated biofilms” value [3, 5] of the same molecule?
Answer: The value was “Twenty”.

Question: What about the “number of genes repressed by tobramycin” value [3, 5] of the same molecule?
Answer: The value was 6.

Question: And the “resistance of rpoS mutant biofilms to killing by tobramycin compared with wild-type biofilms” value [4]?
Answer: Its value is “much more resistant”.
